Columns and labels:
esterase = assay: In vitro esterase activity on hybrids; assay type: in vitro ADME; conditions: 1 mM, phosphate buffer pH 7.8, 37 °C, 90 min and 24 h
Method: Representative hybrid molecules are subjected to an esterase activity in vitro. 100 μL of 1 mg/mL 0.001 N hydrochloric acid of esterase solution was added to 1,250 μL of phosphate buffer (0.1 M) pH 7.8 including the tested compounds (150 μL in DMSO, final concentration 1 mM) and incubated at 37 °C for 90 min. The incubated solution was allowed to set at room temperature. Then, the absorption was measured at 256 nm. The measurement was repeated after 24 h of incubation at 37 °C.

[1] = Inhibition of linoleic acid lipid peroxidation (AAPH); conditions: % inhibition at 100 μM; pH 7.4, 37 °C
Method: Production of conjugated diene hydroperoxide by oxidation of sodium linoleate in an aqueous dispersion is monitored at 234 nm. AAPH is used as a free radical initiator [12, 24]. Ten microlitres of the 16 mM sodium linoleate solution was added to the UV cuvette containing 930 μL of 0.05 M phosphate buffer, pH 7.4 prethermostated at 37 °C. The oxidation reaction was initiated at 37 °C under air by the addition of 40 mM AAPH solution (50 μL). Ten μL of the tested compounds were added in the mixture. Lipid oxidation was measured in the presence of the same level of DMSO. The rate of oxidation at 37 °C was monitored by recording the increase in absorption at 234 nm caused by conjugated diene hydroperoxides. The results were compared to the appropriate standard inhibitor trolox (63%) (Table 1).

sciatic nerve crush [2] = assay: Sciatic Functional Index after sciatic nerve crush; assay type: in vivo, Wistar rats
Source text: SFI is the current standard for measuring functional recovery following rat sciatic nerve crush. Its calculation involves the measurement of wide-ranging relationships between feet and toes of the hindlimb of recovering animals. SFI values close to −100 indicate severe damage, while SFI values close to 0 indicate normal function. The treated rats improved their walk and the relationship between feet and toes of the crushed hindlimbs starting from day 14 to day 21.
(§1) One day prior to the surgery and the behavioral testing, Wistar rats were handled by the investigators and introduced to the testing environment for a brief period of time. Rats were anesthetized with chloral hydrate 4.5% (1 mL/100 g). […] After the exposure, the nerve was crushed once for 30 s at standardized force. The muscle was reapproximated and the skin incision was closed using 6 to 0 sutures. The examination of the loss of sensory and motor function in the operated limb established the crush completeness. Digits in the operated limb were pinched with a blunt forceps. Absence of foot withdrawal and vocalization was recorded as loss of sensory and motor function. Animals were placed under a heating lamp until they recovered from the anesthesia and they returned to their home cages.
(§2) The tested solutions were freshly prepared on surgery day (day 0).
[…] The day of the surgery is considered as day 0 [36, 37, 38].
In the present study, the plantar surfaces of the hindlimbs of the rats were impregnated with ink and then the animals were allowed to walk on a paper along a corridor, leaving footprints during walking.
A wooden corridor (1 m × 8 cm) with raised sidewalls was used. Two and a half white paper strips (40 × 7.5 cm) were placed along the corridor and were fixed with adhesive tape closely together and at the base and the sidewalls of the corridor. Each rat was trained to walk steadily along the corridor without stops until it made three at least successful efforts of continuous walking. The footprints were allowed to dry and were then converted into digital images using a computer and a high resolution scanner. The image processing was done by using the ImageJ. This is an open-source image analysis software created in 1997 by Rayne Rasband (National Institute of Health), widely used in medical applications, especially neuroscience, for measuring distances and surface and plotting the data. The footprints were analyzed as described by Bain et al. in measurements were included: • (i) print length (PL): distance from the heel to the third toe, • (ii) toe spread (TS) distance from the first to the fifth toe on both sides and • (iii) intermediate toe spread (ITS) the distance between the middle of the second and fourth toe
All measurements were taken both from the experimental (EPL, ETS, EIT) and the normal (NPL, NTS, NIT) side. The formula used to calculate SFI was the following: SFI = −38.3 (EPL − NPL)/NPL + 109.5 (ETS − NTS)/NTS + 13.3 (EIT − NIT)/NIT − 8.8

[3] = Lipophilicity as RM values by RP-TLC; assay type: physicochemical; conditions: methanol/water 70/30, 24 °C, average of at least five measurements
Source text: Since lipophilicity is a significant physicochemical property determining distribution, bioavailability, metabolic activity and elimination, we tried to determine experimentally the lipophilicity of the new substances by a RPTLC method as RM values (Table 1) and to compare them with the corresponding theoretically calculated clog p values in n-octanol-buffer. This is considered to be a reliable, fast and convenient method for expressing lipophilicity. Lipophilicity (Table 2), was theoretically calculated as Clog p values in n-octanol-buffer by the CLOGP Programme of Biobyte Corp..
Reversed phase TLC (RP-TLC) was performed on silica gel plates impregnated with 5% (v/v) liquid paraffin in light petroleum ether. The mobile phase was a methanol/water mixture (70/30, v/v). The plates were developed in closed chromatography tanks saturated with the mobile phase at 24 °C. Spots were detected under UV light. RM values were determined from the corresponding Rf values (from five individual measurements) using the equation RM = log [(1/Rf) − 1] (Table 1).

sciatic nerve crush [4] = assay: Recovery of motor and sensory functions after sciatic nerve crush; assay type: in vivo, Wistar rats; conditions: adult rats, intraperitoneally after the compression of the nerve
Method: The locomotor function recovery was examined through the flat runway test, the inclined plane runway test, the grid walking test and the Sciatic Functional Index (SFI) calculation.
as §1, §2
The animals were subjected to a locomotor testing one day before the surgery and on the 1st, 8th, 15th and 22nd day after the sciatic nerve injury. The day of the surgery is considered as day 0 [36, 37, 38].

[5] = single i.p. dose 0.01 mmol/mL/kg, 8 h after surgery

CC(=O)Nc1ccc(OC(=O)/C=C/c2cccc(Oc3ccccc3)c2)cc1 [Compound 2a, (E)-4-Acetamidophenyl 3-(3-phenoxyphenyl)acrylate]
hydrolysis of the ester group by esterase (esterase): hydrolyzed | AAPH % (% inhibition of lipid peroxidation) [1]: 90% | SFI, Day before Crash (sciatic nerve crush [2]; baseline before surgery and dosing): −10.26 | SFI, Day-1 (sciatic nerve crush [2]; [5]): −93.3 | SFI, Day-7 (sciatic nerve crush [2]; [5]): −93.3 | SFI, Day-14 (sciatic nerve crush [2]; [5]): −35.45 | SFI, Day-21 (sciatic nerve crush [2]; [5]): −20.06 | RM (±S.D.) [3]: 0.276 ± 0.006 | recovering motor and sensory functions (sciatic nerve crush [4]): effective in recovering motor and sensory functions
